From ChEMBL document CHEMBL5653615 (J Biol Chem, 2013) come the findings set out here.

Calls of active or inactive are those of the source. No cut-off for these calls is given here.

The target in assay [1] is T1, Serine/threonine-protein kinase BRSK2 (Homo sapiens) (UniProt Q8IWQ3).
T1 sequence (whole entry): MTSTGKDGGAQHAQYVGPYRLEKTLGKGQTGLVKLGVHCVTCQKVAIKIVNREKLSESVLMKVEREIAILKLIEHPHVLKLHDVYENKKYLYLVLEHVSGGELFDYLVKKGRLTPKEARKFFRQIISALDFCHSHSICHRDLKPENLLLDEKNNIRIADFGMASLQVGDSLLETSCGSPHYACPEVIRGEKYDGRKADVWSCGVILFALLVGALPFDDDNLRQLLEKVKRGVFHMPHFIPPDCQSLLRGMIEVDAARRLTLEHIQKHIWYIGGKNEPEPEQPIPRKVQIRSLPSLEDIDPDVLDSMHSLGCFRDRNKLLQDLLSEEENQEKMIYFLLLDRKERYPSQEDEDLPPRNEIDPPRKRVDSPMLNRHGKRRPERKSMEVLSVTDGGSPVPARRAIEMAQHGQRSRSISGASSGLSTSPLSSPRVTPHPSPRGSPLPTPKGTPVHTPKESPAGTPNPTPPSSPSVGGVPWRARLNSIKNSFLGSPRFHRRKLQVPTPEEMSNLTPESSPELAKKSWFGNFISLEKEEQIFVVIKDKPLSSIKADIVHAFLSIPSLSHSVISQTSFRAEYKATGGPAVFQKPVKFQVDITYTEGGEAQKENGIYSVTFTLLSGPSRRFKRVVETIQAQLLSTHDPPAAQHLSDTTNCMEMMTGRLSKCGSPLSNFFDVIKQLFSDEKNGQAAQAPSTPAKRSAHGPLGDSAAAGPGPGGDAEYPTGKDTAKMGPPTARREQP
Kind of assay: Inhibition of human BRSK2 at 18.6 nM by HotSpot assay relative to control.

Assay [2] concerns the target Dual specificity protein kinase CLK2 (Homo sapiens) (UniProt P49760). Description: Inhibition of human CLK2 at 18.6 nM by HotSpot assay relative to control.
The target in assay [3] is Tyrosine-protein kinase Fes/Fps (Homo sapiens) (UniProt P07332). Kind of assay: Inhibition of human FES at 18.6 nM by HotSpot assay relative to control.
For assay [4], the target named is G protein-coupled receptor kinase 6 (Homo sapiens) (UniProt P43250). Kind of assay: Inhibition of human GRK6 at 18.6 nM by HotSpot assay relative to control.
Assay [5] deals with Misshapen-like kinase 1 (Homo sapiens) (UniProt Q8N4C8). Kind of assay: Inhibition of human MINK1 at 18.6 nM by HotSpot assay relative to control.
Assay [6] addresses Protein-tyrosine kinase 2-beta (Homo sapiens) (UniProt Q14289). Kind of assay: Inhibition of human PYK2 at 18.6 nM by HotSpot assay relative to control.
The target of assay [7] is Serine/threonine-protein kinase 25 (Homo sapiens) (UniProt O00506). Kind of assay: Inhibition of human YSK1 at 18.6 nM by HotSpot assay relative to control.
Chain of Serine/threonine-protein kinase 25 (Homo sapiens) (O00506 whole entry, looked up): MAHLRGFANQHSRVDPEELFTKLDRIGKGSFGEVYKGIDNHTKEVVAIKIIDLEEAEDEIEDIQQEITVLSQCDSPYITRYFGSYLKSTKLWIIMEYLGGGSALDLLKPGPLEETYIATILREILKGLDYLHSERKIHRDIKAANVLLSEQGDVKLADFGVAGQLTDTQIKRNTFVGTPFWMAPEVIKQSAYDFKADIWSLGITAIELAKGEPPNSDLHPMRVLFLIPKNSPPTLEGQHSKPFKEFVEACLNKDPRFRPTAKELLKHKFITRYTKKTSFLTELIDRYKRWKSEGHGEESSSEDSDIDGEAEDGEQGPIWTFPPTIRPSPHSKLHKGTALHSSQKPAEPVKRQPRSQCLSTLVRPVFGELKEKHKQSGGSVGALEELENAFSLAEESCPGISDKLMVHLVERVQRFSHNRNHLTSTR
The target of assay [8] is Leukocyte tyrosine kinase receptor (Homo sapiens) (UniProt P29376). Kind of assay: Inhibition of human LTK at 18.6 nM by HotSpot assay relative to control.
The target of assay [9] is Insulin receptor (Homo sapiens) (UniProt P06213). Kind of assay: Inhibition of wild-type human Insulin receptor autophosphorylation in CHO-K1 cell lysate at 10 uM for 30 mins on ice followed by insulin stimulation for 10 mins by Western blot analysis. The class given is subcellular. Conditions: time 40.0 min.
Chain of Insulin receptor (Homo sapiens) (P06213 28-758 limits assumed): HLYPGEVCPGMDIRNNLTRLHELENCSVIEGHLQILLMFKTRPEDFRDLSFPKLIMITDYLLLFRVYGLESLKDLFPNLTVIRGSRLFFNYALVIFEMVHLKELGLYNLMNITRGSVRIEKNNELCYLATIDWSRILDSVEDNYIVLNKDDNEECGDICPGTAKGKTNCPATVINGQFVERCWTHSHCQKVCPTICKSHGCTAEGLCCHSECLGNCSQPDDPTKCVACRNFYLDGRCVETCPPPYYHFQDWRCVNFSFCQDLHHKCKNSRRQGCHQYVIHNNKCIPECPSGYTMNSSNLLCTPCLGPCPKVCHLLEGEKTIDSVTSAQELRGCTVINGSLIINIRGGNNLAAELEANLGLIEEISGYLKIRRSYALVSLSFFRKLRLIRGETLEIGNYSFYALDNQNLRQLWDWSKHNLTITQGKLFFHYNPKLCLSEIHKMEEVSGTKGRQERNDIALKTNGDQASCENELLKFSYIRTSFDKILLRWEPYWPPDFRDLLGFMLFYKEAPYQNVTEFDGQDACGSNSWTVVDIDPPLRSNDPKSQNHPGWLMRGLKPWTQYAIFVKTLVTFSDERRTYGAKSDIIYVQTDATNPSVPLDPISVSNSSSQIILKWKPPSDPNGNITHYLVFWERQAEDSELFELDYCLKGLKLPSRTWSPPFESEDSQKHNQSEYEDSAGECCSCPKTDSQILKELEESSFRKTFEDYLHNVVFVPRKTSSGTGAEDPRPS
Chain of Insulin receptor (Homo sapiens) (P06213 763-1382 limits assumed): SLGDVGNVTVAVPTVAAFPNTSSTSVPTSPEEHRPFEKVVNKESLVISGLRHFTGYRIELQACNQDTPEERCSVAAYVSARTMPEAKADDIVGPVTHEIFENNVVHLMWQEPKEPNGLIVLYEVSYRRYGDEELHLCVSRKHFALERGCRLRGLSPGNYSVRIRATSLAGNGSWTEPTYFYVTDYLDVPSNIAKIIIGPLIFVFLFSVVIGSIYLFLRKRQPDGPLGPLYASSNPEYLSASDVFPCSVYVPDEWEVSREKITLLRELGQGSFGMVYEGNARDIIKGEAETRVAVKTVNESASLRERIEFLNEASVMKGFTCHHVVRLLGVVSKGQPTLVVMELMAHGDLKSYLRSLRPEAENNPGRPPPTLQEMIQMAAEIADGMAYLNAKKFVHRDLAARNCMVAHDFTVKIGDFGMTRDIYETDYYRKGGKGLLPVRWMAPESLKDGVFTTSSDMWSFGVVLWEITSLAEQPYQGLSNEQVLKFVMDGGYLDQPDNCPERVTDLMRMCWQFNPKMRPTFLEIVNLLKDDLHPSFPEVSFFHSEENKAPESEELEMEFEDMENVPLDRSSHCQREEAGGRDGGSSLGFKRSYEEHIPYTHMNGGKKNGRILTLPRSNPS
Assay [10] concerns the target Calcium/calmodulin-dependent protein kinase type 1B (Homo sapiens) (UniProt Q6P2M8). Description: Inhibition of human CAMK1b at 1.82 nM by HotSpot assay relative to control.
In assay [11] the target is Calcium/calmodulin-dependent protein kinase type II subunit delta (Homo sapiens) (UniProt Q13557). Kind of assay: Inhibition of human CAMK2d at 1.82 nM by HotSpot assay relative to control.
Assay [12] concerns the target Cyclin-dependent kinase 5/CDK5 activator 1 (Homo sapiens) (UniProt Q00535+Q15078). Description: Inhibition of human CDK5/p25 at 1.82 nM by HotSpot assay relative to control. The format is protein-complex assay.
For assay [13], the target named is Casein kinase I isoform alpha (Homo sapiens) (UniProt P48729). Description: Inhibition of human CK1a1 at 1.82 nM by HotSpot assay relative to control.
Chain of Casein kinase I isoform alpha (Homo sapiens) (P48729 2-337 limits assumed): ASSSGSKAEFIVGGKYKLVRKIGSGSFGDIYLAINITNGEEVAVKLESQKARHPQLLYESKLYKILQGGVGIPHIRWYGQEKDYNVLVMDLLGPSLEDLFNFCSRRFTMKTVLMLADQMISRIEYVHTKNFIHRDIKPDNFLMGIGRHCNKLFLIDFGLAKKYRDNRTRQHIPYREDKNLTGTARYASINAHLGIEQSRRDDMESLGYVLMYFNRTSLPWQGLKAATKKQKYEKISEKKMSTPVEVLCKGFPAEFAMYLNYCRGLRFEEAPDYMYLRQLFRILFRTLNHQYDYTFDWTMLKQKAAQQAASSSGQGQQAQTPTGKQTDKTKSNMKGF
Assay [14] concerns the target Casein kinase I isoform gamma-2 (Homo sapiens) (UniProt P78368). Kind of assay: Inhibition of human CK1g2 at 1.82 nM by HotSpot assay relative to control.
Assay [15] has as its target Interleukin-1 receptor-associated kinase 1 (Homo sapiens) (UniProt P51617). Description: Inhibition of human IRAK1 at 1.82 nM by HotSpot assay relative to control.
In assay [16] the target is SRSF protein kinase 3 (Homo sapiens) (UniProt Q9UPE1). Description: Inhibition of human STK23 at 1.82 nM by HotSpot assay relative to control.
Chain of SRSF protein kinase 3 (Homo sapiens) (Q9UPE1 whole entry): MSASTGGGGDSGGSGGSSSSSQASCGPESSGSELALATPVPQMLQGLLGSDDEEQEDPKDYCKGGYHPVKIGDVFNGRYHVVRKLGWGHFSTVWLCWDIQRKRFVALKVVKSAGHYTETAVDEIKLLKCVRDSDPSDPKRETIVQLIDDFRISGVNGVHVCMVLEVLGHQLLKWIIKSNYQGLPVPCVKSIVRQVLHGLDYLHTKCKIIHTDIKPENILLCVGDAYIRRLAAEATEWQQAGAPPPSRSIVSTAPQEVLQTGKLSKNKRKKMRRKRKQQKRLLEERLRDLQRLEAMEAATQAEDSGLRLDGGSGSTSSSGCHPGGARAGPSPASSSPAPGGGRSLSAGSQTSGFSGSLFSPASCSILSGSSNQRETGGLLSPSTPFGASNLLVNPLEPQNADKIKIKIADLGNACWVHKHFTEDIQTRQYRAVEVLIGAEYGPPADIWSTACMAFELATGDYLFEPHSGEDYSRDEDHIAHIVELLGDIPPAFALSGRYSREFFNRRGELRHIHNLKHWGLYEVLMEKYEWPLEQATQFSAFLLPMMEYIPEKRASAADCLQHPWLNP
In assay [17] the target is Serine/threonine-protein kinase pim-1 (Homo sapiens) (UniProt P11309). Description: Inhibition of human PIM1 at 1.82 nM by HotSpot assay relative to control.
In assay [18] the target is Dual specificity protein kinase CLK4 (Homo sapiens) (UniProt Q9HAZ1). Conditions: dose 1.82 nM.
Chain of Dual specificity protein kinase CLK4 (Homo sapiens) (Q9HAZ1 whole entry, looked up): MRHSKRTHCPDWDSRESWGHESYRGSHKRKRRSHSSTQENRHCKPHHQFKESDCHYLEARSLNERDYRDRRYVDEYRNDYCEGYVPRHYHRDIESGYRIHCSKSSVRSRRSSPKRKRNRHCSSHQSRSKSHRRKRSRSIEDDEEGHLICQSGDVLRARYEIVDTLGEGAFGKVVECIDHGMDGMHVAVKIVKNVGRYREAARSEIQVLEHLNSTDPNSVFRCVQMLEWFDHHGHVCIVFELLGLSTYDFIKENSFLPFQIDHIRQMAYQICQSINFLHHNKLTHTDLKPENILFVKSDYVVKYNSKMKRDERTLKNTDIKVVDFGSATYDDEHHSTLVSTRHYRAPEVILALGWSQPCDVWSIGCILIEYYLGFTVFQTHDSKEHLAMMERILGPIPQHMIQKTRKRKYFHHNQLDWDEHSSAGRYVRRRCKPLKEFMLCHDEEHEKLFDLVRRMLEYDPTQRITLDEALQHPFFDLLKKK
Description: Inhibition of human CLK4 at 1.82 nM by HotSpot assay relative to control
Assay [19] has as its target T2, Protein kinase C zeta type (Homo sapiens) (UniProt Q05513).
T2 sequence (whole entry): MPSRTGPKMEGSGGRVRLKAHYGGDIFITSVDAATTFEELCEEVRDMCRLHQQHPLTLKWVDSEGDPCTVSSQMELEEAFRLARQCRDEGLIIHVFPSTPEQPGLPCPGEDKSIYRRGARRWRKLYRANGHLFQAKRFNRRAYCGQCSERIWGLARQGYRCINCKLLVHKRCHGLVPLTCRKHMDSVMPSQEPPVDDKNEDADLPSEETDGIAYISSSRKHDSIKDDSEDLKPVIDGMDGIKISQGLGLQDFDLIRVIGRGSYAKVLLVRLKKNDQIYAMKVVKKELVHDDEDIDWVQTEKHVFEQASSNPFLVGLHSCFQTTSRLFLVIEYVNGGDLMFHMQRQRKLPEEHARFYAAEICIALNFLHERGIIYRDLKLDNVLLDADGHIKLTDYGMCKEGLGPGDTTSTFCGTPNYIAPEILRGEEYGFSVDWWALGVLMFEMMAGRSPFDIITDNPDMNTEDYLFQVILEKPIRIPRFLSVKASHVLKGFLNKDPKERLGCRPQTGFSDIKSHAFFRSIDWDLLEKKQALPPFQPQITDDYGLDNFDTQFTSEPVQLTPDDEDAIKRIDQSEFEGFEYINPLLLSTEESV
Kind of assay: Inhibition of human PKCzeta at 500 nM by HotSpot assay relative to control.

Chain of Protein-tyrosine kinase 2-beta (Homo sapiens) (Q14289 whole entry, looked up): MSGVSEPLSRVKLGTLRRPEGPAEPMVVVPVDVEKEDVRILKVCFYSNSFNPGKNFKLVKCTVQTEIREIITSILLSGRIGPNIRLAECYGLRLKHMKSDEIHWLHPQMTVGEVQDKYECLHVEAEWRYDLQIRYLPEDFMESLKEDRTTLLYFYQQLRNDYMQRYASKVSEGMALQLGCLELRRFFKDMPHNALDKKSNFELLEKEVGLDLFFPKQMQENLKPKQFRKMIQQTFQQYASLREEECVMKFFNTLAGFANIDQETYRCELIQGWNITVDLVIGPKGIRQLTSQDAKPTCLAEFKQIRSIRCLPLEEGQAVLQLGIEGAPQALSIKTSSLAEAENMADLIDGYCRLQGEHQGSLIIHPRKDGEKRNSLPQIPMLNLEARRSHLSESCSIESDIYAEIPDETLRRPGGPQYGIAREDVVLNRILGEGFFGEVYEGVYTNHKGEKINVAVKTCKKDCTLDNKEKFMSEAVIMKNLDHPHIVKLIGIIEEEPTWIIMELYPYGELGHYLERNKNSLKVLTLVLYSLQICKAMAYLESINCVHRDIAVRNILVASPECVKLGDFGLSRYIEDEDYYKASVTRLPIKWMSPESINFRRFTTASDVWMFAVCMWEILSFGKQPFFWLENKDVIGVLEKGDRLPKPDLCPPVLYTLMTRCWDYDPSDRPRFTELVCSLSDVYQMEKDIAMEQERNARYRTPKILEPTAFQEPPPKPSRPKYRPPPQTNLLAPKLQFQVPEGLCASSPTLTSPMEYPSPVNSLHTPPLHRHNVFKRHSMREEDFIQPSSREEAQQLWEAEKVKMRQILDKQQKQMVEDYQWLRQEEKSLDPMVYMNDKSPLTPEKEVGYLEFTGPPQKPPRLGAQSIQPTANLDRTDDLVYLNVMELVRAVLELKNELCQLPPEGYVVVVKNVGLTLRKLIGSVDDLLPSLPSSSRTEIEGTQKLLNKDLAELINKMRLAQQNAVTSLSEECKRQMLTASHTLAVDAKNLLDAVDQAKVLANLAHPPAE
Chain of Casein kinase I isoform gamma-2 (Homo sapiens) (P78368 whole entry, looked up, canonical isoform): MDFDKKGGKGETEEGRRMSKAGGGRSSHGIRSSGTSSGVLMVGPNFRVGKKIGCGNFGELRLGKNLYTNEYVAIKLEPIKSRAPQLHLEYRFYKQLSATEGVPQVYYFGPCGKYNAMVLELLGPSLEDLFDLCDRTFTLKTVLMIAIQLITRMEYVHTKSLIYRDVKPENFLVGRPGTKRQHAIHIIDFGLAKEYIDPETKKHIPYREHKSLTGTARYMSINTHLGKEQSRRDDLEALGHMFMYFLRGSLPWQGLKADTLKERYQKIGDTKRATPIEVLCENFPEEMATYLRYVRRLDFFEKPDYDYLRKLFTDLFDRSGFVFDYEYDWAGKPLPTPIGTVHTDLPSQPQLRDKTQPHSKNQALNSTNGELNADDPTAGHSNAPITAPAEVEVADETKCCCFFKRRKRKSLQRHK
Chain of Calcium/calmodulin-dependent protein kinase type 1B (Homo sapiens) (Q6P2M8 whole entry): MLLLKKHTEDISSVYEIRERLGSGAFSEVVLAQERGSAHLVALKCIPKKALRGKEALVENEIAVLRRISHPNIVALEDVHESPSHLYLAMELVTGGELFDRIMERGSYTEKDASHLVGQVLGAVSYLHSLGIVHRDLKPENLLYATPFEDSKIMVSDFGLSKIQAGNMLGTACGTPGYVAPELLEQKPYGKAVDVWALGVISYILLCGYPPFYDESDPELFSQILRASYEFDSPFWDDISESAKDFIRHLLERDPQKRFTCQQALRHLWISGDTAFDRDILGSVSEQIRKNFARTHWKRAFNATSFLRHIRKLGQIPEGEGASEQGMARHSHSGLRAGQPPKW

Regarding `C[C@]1(O)C[C@@H](c2nc(-c3ccc4ccc(-c5ccccc5)nc4c3)c3c(N)nccn32)C1`, the inhibition in assay [1] is -4.68%; in assay [2] it was 4.4%; in assay [3], 1.59%; in assay [4], 3.48%; in assay [5] it was -2.76%; in [6], -4.64%. In addition, the inhibition in [7] is -3.04%; in assay [8], -0.44%.

With `Oc1n[nH]c2nnc(-c3c(-c4ccccc4)nn4ccccc34)cc12`, the inhibition entry in assay [9] is “Active”.

With `C[C@@]1(C(=O)Nc2ccc(F)nc2)CCCN1c1nc(Nc2cc(C3CC3)n[nH]2)c2cccn2n1`, the inhibition in assay [10] is -2.9%; in assay [11], -2.72%; in assay [12], 2.17%; in assay [13], -1.84%; in assay [14] it was -3.24%; in [15], -7.77%. Moreover, the inhibition in assay [16] was -7.78%; in assay [17], -5.96%; in assay [18] it was -10%.

For the compound `Nc1n[nH]c2nnc(-c3c(-c4ccccc4)nn4ccccc34)cc12`, in assay [19], the inhibition worked out at 16.1%.
